Tests used:
Assay type in all cases: functional
Settings in all cases: read-out: GI
[1] = tested on: HL-60(TB); assay: Anticancer activity against human HL-60(TB) cells assessed as cell growth inhibition at 10 uM incubated for 48 hrs by SRB assay relative to control
[2] = tested on: K562; assay: Anticancer activity against human K562 cells assessed as cell growth inhibition at 10 uM incubated for 48 hrs by SRB assay relative to control
[3] = tested on: MOLT-4; assay: Anticancer activity against human MOLT-4 cells assessed as cell growth inhibition at 10 uM incubated for 48 hrs by SRB assay relative to control
[4] = tested on: RPMI-8226; assay: Anticancer activity against human RPMI-8226 cells assessed as cell growth inhibition at 10 uM incubated for 48 hrs by SRB assay relative to control
[5] = tested on: A549; assay: Anticancer activity against human A549 cells assessed as cell growth inhibition at 10 uM incubated for 48 hrs by SRB assay relative to control
[6] = tested on: EKVX; assay: Anticancer activity against human EKVX cells assessed as cell growth inhibition at 10 uM incubated for 48 hrs by SRB assay relative to control
[7] = tested on: HOP-62; assay: Anticancer activity against human HOP-62 cells assessed as cell growth inhibition at 10 uM incubated for 48 hrs by SRB assay relative to control
[8] = tested on: HOP-92; assay: Anticancer activity against human HOP-92 cells assessed as cell growth inhibition at 10 uM incubated for 48 hrs by SRB assay relative to control
[9] = tested on: NCI-H23; assay: Anticancer activity against human NCI-H23 cells assessed as cell growth inhibition at 10 uM incubated for 48 hrs by SRB assay relative to control
[10] = tested on: NCI-H322M; assay: Anticancer activity against human NCI-H322M cells assessed as cell growth inhibition at 10 uM incubated for 48 hrs by SRB assay relative to control
[11] = tested on: NCI-H522; assay: Anticancer activity against human NCI-H522 cells assessed as cell growth inhibition at 10 uM incubated for 48 hrs by SRB assay relative to control
[12] = tested on: COLO 205; assay: Anticancer activity against human COLO 205 cells assessed as cell growth inhibition at 10 uM incubated for 48 hrs by SRB assay relative to control
[13] = tested on: KM12; assay: Anticancer activity against human KM12 cells assessed as cell growth inhibition at 10 uM incubated for 48 hrs by SRB assay relative to control
[14] = tested on: SW-620; assay: Anticancer activity against human SW-620 cells assessed as cell growth inhibition at 10 uM incubated for 48 hrs by SRB assay relative to control
[15] = tested on: SF-268; assay: Anticancer activity against human SF-268 cells assessed as cell growth inhibition at 10 uM incubated for 48 hrs by SRB assay relative to control
[16] = tested on: SF-295; assay: Anticancer activity against human SF-295 cells assessed as cell growth inhibition at 10 uM incubated for 48 hrs by SRB assay relative to control
[17] = tested on: SNB-19; assay: Anticancer activity against human SNB-19 cells assessed as cell growth inhibition at 10 uM incubated for 48 hrs by SRB assay relative to control
[18] = tested on: SNB-75; assay: Anticancer activity against human SNB-75 cells assessed as cell growth inhibition at 10 uM incubated for 48 hrs by SRB assay relative to control
[19] = tested on: Malme-3M; assay: Anticancer activity against human Malme-3M cells assessed as cell growth inhibition at 10 uM incubated for 48 hrs by SRB assay relative to control
[20] = tested on: MDA-MB-435; assay: Anticancer activity against human MDA-MB-435 cells assessed as cell growth inhibition at 10 uM incubated for 48 hrs by SRB assay relative to control
[21] = tested on: SK-MEL-2; assay: Anticancer activity against human SK-MEL-2 cells assessed as cell growth inhibition at 10 uM incubated for 48 hrs by SRB assay relative to control
[22] = tested on: SK-MEL-28; assay: Anticancer activity against human SK-MEL-28 cells assessed as cell growth inhibition at 10 uM incubated for 48 hrs by SRB assay relative to control
[23] = tested on: SK-MEL-5; assay: Anticancer activity against human SK-MEL-5 cells assessed as cell growth inhibition at 10 uM incubated for 48 hrs by SRB assay relative to control
[24] = tested on: UACC-257; assay: Anticancer activity against human UACC-257 cells assessed as cell growth inhibition at 10 uM incubated for 48 hrs by SRB assay relative to control
[25] = tested on: IGROV-1; assay: Anticancer activity against human IGROV-1 cells assessed as cell growth inhibition at 10 uM incubated for 48 hrs by SRB assay relative to control
[26] = tested on: OVCAR-3; assay: Anticancer activity against human OVCAR-3 cells assessed as cell growth inhibition at 10 uM incubated for 48 hrs by SRB assay relative to control
[27] = tested on: OVCAR-8; assay: Anticancer activity against human OVCAR-8 cells assessed as cell growth inhibition at 10 uM incubated for 48 hrs by SRB assay relative to control
[28] = tested on: NCI/ADR-RES; assay: Anticancer activity against human NCI/ADR-RES cells assessed as cell growth inhibition at 10 uM incubated for 48 hrs by SRB assay relative to control
[29] = tested on: SK-OV-3; assay: Anticancer activity against human SK-OV-3 cells assessed as cell growth inhibition at 10 uM incubated for 48 hrs by SRB assay relative to control
[30] = tested on: 786-0; assay: Anticancer activity against human 786-0 cells assessed as cell growth inhibition at 10 uM incubated for 48 hrs by SRB assay relative to control
[31] = tested on: A498; assay: Anticancer activity against human A498 cells assessed as cell growth inhibition at 10 uM incubated for 48 hrs by SRB assay relative to control
[32] = tested on: CAKI-1; assay: Anticancer activity against human CAKI-1 cells assessed as cell growth inhibition at 10 uM incubated for 48 hrs by SRB assay relative to control
[33] = tested on: RXF 393; assay: Anticancer activity against human RXF 393 cells assessed as cell growth inhibition at 10 uM incubated for 48 hrs by SRB assay relative to control
[34] = tested on: MDA-MB-231; assay: Anticancer activity against human MDA-MB-231 cells assessed as cell growth inhibition at 10 uM incubated for 48 hrs by SRB assay relative to control
[35] = tested on: Hs-578T; assay: Anticancer activity against human Hs-578T cells assessed as cell growth inhibition at 10 uM incubated for 48 hrs by SRB assay relative to control
[36] = tested on: BT-549; assay: Anticancer activity against human BT-549 cells assessed as cell growth inhibition at 10 uM incubated for 48 hrs by SRB assay relative to control
[37] = tested on: T47D; assay: Anticancer activity against human T47D cells assessed as cell growth inhibition at 10 uM incubated for 48 hrs by SRB assay relative to control
[38] = tested on: MDA-MB-468; assay: Anticancer activity against human MDA-MB-468 cells assessed as cell growth inhibition at 10 uM incubated for 48 hrs by SRB assay relative to control
[39] = tested on: OVCAR-4; assay: Anticancer activity against human OVCAR-4 cells assessed as cell growth inhibition at 10 uM incubated for 48 hrs by SRB assay relative to control

| SMILES | inhibition of growth at 10 µM [1] [%] | inhibition of growth at 10 µM [2] [%] | inhibition of growth at 10 µM [3] [%] | inhibition of growth at 10 µM [4] [%] | inhibition of growth at 10 µM [5] [%] | inhibition of growth at 10 µM [6] [%] | inhibition of growth at 10 µM [7] [%] | inhibition of growth at 10 µM [8] [%] | inhibition of growth at 10 µM [9] [%] | inhibition of growth at 10 µM [10] [%] | inhibition of growth at 10 µM [11] [%] | inhibition of growth at 10 µM [12] [%] | inhibition of growth at 10 µM [13] [%] | inhibition of growth at 10 µM [14] [%] | inhibition of growth at 10 µM [15] [%] | inhibition of growth at 10 µM [16] [%] | inhibition of growth at 10 µM [17] [%] | inhibition of growth at 10 µM [18] [%] | inhibition of growth at 10 µM [19] [%] | inhibition of growth at 10 µM [20] [%] | further results |
| --- | --- | --- | --- | --- | --- | --- | --- | --- | --- | --- | --- | --- | --- | --- | --- | --- | --- | --- | --- | --- | --- |
| NS(=O)(=O)c1ccc(Nc2nc(N/N=C/c3ccc4c(c3)OCO4)nc(Nc3ccccc3)n2)cc1 | 68 | 66 | 88 | 45 | 25 | 26 | 70 | 33 | 74 | 38 | 39 | 50 | 29 | 50 | 57 | 35 | 44 | 46 | 41 | 40 | inhibition of growth at 10 µM [21]: 44%; inhibition of growth at 10 µM [22]: 32%; inhibition of growth at 10 µM [23]: 45%; inhibition of growth at 10 µM [24]: 15%; inhibition of growth at 10 µM [25]: 63%; inhibition of growth at 10 µM [26]: 51%; inhibition of growth at 10 µM [27]: 50%; inhibition of growth at 10 µM [28]: < 10%; inhibition of growth at 10 µM [29]: 34%; inhibition of growth at 10 µM [30]: 38%; inhibition of growth at 10 µM [31]: 48%; inhibition of growth at 10 µM [32]: 54%; inhibition of growth at 10 µM [33]: 77%; inhibition of growth at 10 µM [34]: 40%; inhibition of growth at 10 µM [35]: 47%; inhibition of growth at 10 µM [36]: 23%; inhibition of growth at 10 µM [37]: 45%; inhibition of growth at 10 µM [38]: 53%; inhibition of growth at 10 µM [39]: 44% |
| COc1ccc(/C=N/Nc2nc(Nc3ccccc3)nc(Nc3ccc(S(N)(=O)=O)cc3)n2)cc1 | 16 | 50 | 55 | 52 | 12 | 11 | 19 | < 10 | 29 | 15 | 17 | 23 | 25 | 27 | < 10 | 29 | 13 | 18 | 18 | 23 | inhibition of growth at 10 µM [21]: 31%; inhibition of growth at 10 µM [22]: 21%; inhibition of growth at 10 µM [23]: 25%; inhibition of growth at 10 µM [24]: < 10%; inhibition of growth at 10 µM [25]: 41%; inhibition of growth at 10 µM [26]: 38%; inhibition of growth at 10 µM [27]: 32%; inhibition of growth at 10 µM [28]: < 10%; inhibition of growth at 10 µM [29]: < 10%; inhibition of growth at 10 µM [30]: 26%; inhibition of growth at 10 µM [31]: 38%; inhibition of growth at 10 µM [32]: 24%; inhibition of growth at 10 µM [33]: 77%; inhibition of growth at 10 µM [34]: 32%; inhibition of growth at 10 µM [35]: 41%; inhibition of growth at 10 µM [36]: 14%; inhibition of growth at 10 µM [37]: 36%; inhibition of growth at 10 µM [38]: 23%; inhibition of growth at 10 µM [39]: 33% |
